Results from ChEMBL document CHEMBL1138176, “Synthesis and structure-activity relationship of small-molecule malonyl coenzyme A decarboxylase inhibitors” (J Med Chem, 2006).
In brackets after ≈: the same amount, converted by molar mass. Activity calls are given as the source filed them. No cut-off for these calls is given here.

Tests used:
[1] = biological target: T1, Malonyl-CoA decarboxylase, mitochondrial (Homo sapiens, UniProt O95822); assay: Inhibition of MCD at 10 uM
T1 sequence (O95822 whole entry): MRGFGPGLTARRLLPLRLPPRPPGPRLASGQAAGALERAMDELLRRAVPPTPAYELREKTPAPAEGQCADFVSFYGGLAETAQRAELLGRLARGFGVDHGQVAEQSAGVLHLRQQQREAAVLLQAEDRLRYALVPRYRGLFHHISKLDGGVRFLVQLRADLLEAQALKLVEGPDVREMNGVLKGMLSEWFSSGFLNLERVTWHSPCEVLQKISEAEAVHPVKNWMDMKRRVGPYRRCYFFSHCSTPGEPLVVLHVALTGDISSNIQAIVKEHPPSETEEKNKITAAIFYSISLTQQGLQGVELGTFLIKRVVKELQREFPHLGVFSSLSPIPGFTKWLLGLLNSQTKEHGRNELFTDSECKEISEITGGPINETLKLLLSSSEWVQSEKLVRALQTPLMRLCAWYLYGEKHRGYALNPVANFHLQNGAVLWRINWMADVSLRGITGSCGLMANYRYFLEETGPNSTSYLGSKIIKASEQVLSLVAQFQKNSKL

[2] = Caco-2 cell membrane permeability; settings: human
[3] = Solubility in PBS at pH 7.4
[4] = Stability in rat liver microsomes at 5 uM
[5] = Stability in human liver microsomes at 5 uM
Sus scrofa = species on record: Sus scrofa; assay: Decrease in lactate production in ischemic pig heart; format: functional, organism-based

Compound	IC50 [1]	Papp [2]	solubility [3]	remaining at 5 µM [4]	remaining at 5 µM [5]	Activity (Sus scrofa)
O=C(Nc1ccccc1)Nc1ccc(C(O)(C(F)(F)F)C(F)(F)F)cc1	Not Active					
CCN(C(=O)c1ccc(C#N)cc1)c1ccc(C(O)(C(F)(F)F)C(F)(F)F)cc1		38.7 ×10⁻⁶ cm/s	8.7 µM (≈ 3.62 µg/mL)	66%	93%	
CC(C)C(=O)Nc1ccc(C(O)(C(F)(F)F)C(F)(F)F)cc1	Not Active					
O=C(Nc1ccc(C(O)(C(F)(F)F)C(F)(F)F)cc1)N1CCOCC1	Not Active					
COC(=O)CCCCN(C(=O)N1CCOCC1)c1ccc(C(O)(C(F)(F)F)C(F)(F)F)cc1						Active

Second part, led by results:

IC50 [1]	Papp [2]	solubility [3]	remaining at 5 µM [4]	remaining at 5 µM [5]	Compound	Activity (Sus scrofa)
	49.4 ×10⁻⁶ cm/s	187 µM (≈ 80.6 µg/mL)	7%	51%	CCN(CCCCO)C(=O)N(CC)c1ccc(C(O)(C(F)(F)F)C(F)(F)F)cc1	
		206 µM (≈ 97.1 µg/mL)	108%	99%	O=C(O)CCCCN(C(=O)N1CCOCC1)c1ccc(C(O)(C(F)(F)F)C(F)(F)F)cc1	
	68.2 ×10⁻⁶ cm/s	189 µM (≈ 75.8 µg/mL)	9%	87%	CCN(C(=O)N1CCOCC1)c1ccc(C(O)(C(F)(F)F)C(F)(F)F)cc1	
